The record followed here is patent publication US9144595B2, “APLs for treating arthritis” (University of Tennessee Research Foundation, priority 2009, dated 2015).

Assay [1] relates to splenocytes and lymph node cells from DR1 Transgenic mice. The assay can be described thus: Cytokine secretion by splenocytes and lymph node cells of DR1 Transgenic mice immunized with CII or Analog A12. The assay is classed as cell-based, mouse. An excerpt:
One of the most important characteristics of the A12 analog peptide was its ability to induce a Th2-type cytokine secretion profile. In this set of experiments, DR1 transgenic mice were immunized with A12 peptide or CII emulsified with CFA. […] In contrast, cells from mice immunized with CII generated predominantly a Th1 response to the wild-type peptide. […] The ability to induce the secretion of Th2 cytokines may explain the profound suppressive effects A12 has on the development of CIA.
One of the most important characteristics of the A12 analog peptide is its ability to reduce a Th1 cytokine profile and induce a Th2-type cytokine secretion profile in humans and in DR1 transgenic mice. In work we have published, DR1 transgenic mice were immunized with A12 peptide or CII emulsified with CFA. […] In contrast, cells from mice immunized with CII generated multiple cytokines, but predominantly a Th1 response to the wild-type peptide. Importantly, although immunized with CII, they responded to A12 with only a Th2 response.

Assay [2] concerns splenocytes of DR1 transgenic mice. Kind of assay: Oral APL A12: IFNγ production by cultured splenocytes of DR1 transgenic mice. The assay is classed as in vivo, mouse.
The test system of assay [3] is TCR-ζ chain. Kind of assay: Phosphorylation of the TCR-ζ chain in CII-specific CD4+ T cells. The assay is classed as cell-based, mouse. Conditions: CD4+ T cells cultured with peptide-pulsed APCs; FIG. 4. As for the experimental part:
Purified CD4+ cells from the DR1-TCR tg mice are an excellent source of cells to explore the intracellular signaling pathways induced by either A2 or A12. In preliminary experiments we precipitated proteins with an antibody specific for CD3-ζ (34) to examine for the presence of phosphorylated proteins.
CD4+T cells were cultured with APC's pulsed with the wild-type peptide (WT), A12, or no antigen (No Ag). Proteins were immunoprecipitated with […] of affinity-purified anti-TCR-ζ antibody. The immunoprecipitates were separated by SDS-12%-PAGE, and transferred to nitrocellulose membrane. The membrane was blotted with monoclonal anti-phosphotyrosine antibody (α-pTyr). The positions of the phosphorylated-TCR-ζ are shown by arrows 410, 415. The 21 kDa and 23 kDa bands were not detected in immunoprecipitates from a B cell lymphoma line (data not shown). Bands for the total amount of zeta protein were identical for all three columns. Arrows 410 and 415 are shown denoting 21 kDa and 23 kDa bands, respectively. […] The bands are for No Ag 440, Wt 445, and A12 450. The bands are shown: Wt 425, No Ag 435, A12 430. Bands for zeta protein are shown: No Ag 455, Wt 460, and A12 465.

Assay [4] deals with Spleen tyrosine kinase (Syk). Kind of assay: Syk phosphorylation in CD4+ T cells of DR1/TCR transgenic mice (flow cytometry). The assay is classed as cell-based, mouse. The conditions noted are these: APCs prepulsed with peptide, compared with media controls. From the text: Since T cells clearly responded to A12 differently than to the wild type A2 peptide, we analyzed them for the possibility that they might be utilizing an alternative signaling pathway. Spleen tyrosine kinase (Syk), a kinase ordinarily utilized by B cells was selected for further analysis. In these experiments, CD4^+ T-cells from the DR1/TCR transgenic mice were purified by negative selection (using a Miltenyi kit) and stained with an antibody specific for phospho Syk following exposure to APCs prepulsed with either A2 or A12. […] Histograms were generated using flow cytometry with gating specifically on the CD4^+ population, confirming that the changes observed were produced by T-cells.
FIGS. 5A and 5B show T cell signaling induced by A2 and A12. Flow cytometry was performed using purified CD4+ T cells from spleens of DR1 TCR Tg mice. The T cells were stimulated by APCs pre-pulsed with A2, A12 or no peptide (Control) for 5 minutes. The cells were then fixed, permeabilized, and stained with an antibody specific for phospho-Syk (Tyr 323) (left panel) or phospho-ERK 1/2 (right panel) and analyzed by flow cytometry. Both plots are gated on CD4 T cells. Axes 510, 540, show the number of events and axes 515, 545 show a logarithmic scale for Anti-phospho Erk and Syk respectively, for FIGS. 5A and 5B. In FIG. 5A line 520 is for A2 peptide, line 525 is the control, and line 530 is the A12 peptide. […]
Background: Flow cytometry measures light scatter and fluorescence of single cells or particles in a stream.

Assay [5] has as its system FcεRIγ. Kind of assay: FcεRIγ expression in DR1 TCR tg cells. The assay is classed as cell-based, mouse. The conditions noted are these: DR1 TCR tg cells cultured with peptide 48 hours; FIG. 6. As for the experimental part: In FIG. 6 it is shown that A12 treatment increases […] expression. In the graph with axis 610 for the percentage of the maximum, axis 615 for the number of occurrences on a log scale, line 620 is for A2, line 625 is for media alone, and line 630 is for A12. Splenocytes from DR1 TCR transgenic mice were cultured for 48 hours in the presence of A12 (dark grey line), A2 (black line) or media alone (light grey line). […] The cells cultured with A2 peptide are no different than unstimulated controls.
Finally, we examined the expression of FcεRIγ, a molecule known to associate with the TCR complex. In some circumstances, the TCR is rewired so that the FcRgamma chain assumes the function of the zeta chain. Therefore, the DR1 TCR tg cells were cultured with either A12, or A2, or media alone and stained with an antibody specific for the gamma chain of the FcεRIγ molecule.

Setting [6] is: Immunogen Analog A12, cultured with 100 μg/ml A12.
Where [7] appears, read: Immunogen Analog A12, cultured with 100 μg/ml PPD.
[8] abbreviates: Immunogen Analog A12, cultured with 100 μg/ml Wild-type Peptide.
Setting [9] is: Immunogen Analog A12, cultured with 100 μg/ml α1(II).
[10] abbreviates: Immunogen CII, cultured with 100 μg/ml A12.

For the sequence LGPKGQTGEBGIAGAKGDQGPKGEBGPA [APL A12], the IFN-γ was 0 pg/mL in assay [1] (setting [6]); 2,225 pg/ml in assay [1] (setting [7]); 175 pg/mL in assay [1] (setting [8]); 0 pg/mL in assay [1] (setting [9]); 0 pg/mL in assay [1] (setting [10]). Besides, the IL-10 worked out at 808 pg/mL in assay [1] (setting [6]); 248 pg/mL in assay [1] (setting [7]); 792 pg/mL in assay [1] (setting [8]); 680 pg/mL in assay [1] (setting [9]); 610 pg/mL in assay [1] (setting [10]). For the same sequence, the Il-4 in assay [1] (setting [6]) came to 31 pg/mL; in assay [1] (setting [7]), 0 pg/mL; in assay [1] (setting [8]), 23 pg/mL; in assay [1] (setting [9]) it was 45 pg/mL; in assay [1] (setting [10]) it was 40 pg/mL. For the same sequence, the “IFNγ Levels in Splenocyte Culture” value amounted to 2 ± 3 pg/mL in assay [2] (mice gavaged with 50 μg APL A12 8 times over 2 weeks, splenocytes cultured with PBS); 5 ± 10 pg/mL in assay [2] (mice gavaged with 50 μg APL A12, splenocytes cultured with APL A12 50 μg/ml); 12 ± 20 pg/mL in assay [2] (mice gavaged with 50 μg APL A12, splenocytes cultured with CII263-270 50 μg/ml); 65 ± 52 pg/mL in assay [2] (mice gavaged with PBS, splenocytes cultured with APL A12 50 μg/ml). Further, the TCR-ζ chain phosphorylation result in assay [3] is listed as “did not significantly activate”. The Syk phosphorylation result in assay [4] is listed as “induced significant Syk phosphorylation”. Moreover, the “FcR gamma chain (FcεRIγ) expression” value in assay [5] is reported as “significant increase”.
